Values quoted from earlier work in US7618965B2, “(Arylamidoanilino)nitroethylene compounds” (OSI Pharmaceuticals, Inc., priority 2004, dated 2009).
Structures can show the parent of a compound that is named as a salt.

Assays:
[1] = tested on: MO7e human leukemia cells
[2] = tested on: MO7e human leukemia cells; remark: listed apart in the source

Structure (SMILES): Cc1ccc(NC(=O)c2ccc(CN3CCN(C)CC3)cc2)cc1Nc1nccc(-c2cccnc2)n1 [Gleevec, imatinib mesylate]
- GM-CSF stimulated growth of MO7e cells [1]: not affected
- Kit ligand-stimulated growth of MO7e cells [2]: inhibited
